# Results as given in ChEMBL document CHEMBL5113536, “Triphosphate Prodrugs of the Anti-HIV-Active Compound 3'-Deoxy-3'-fluorothymidine (FLT)” (J Med Chem, 2022).
# Activity calls are given as the source filed them. The calls are words filed in the database; no cut-off is given here.
# What was measured:
# [1] = Stability in buffer assessed as pig liver esterase-mediated clevage of first masking group half life at pH 7.3 by RP-HPLC analysis; type: ADME, tissue-based
# [2] = Stability in PBS buffer assessed as clevage of first masking group half life in at pH 7.3 in presence of CEM/0 cell extract medium by RP-HPLC analysis; type: physicochemical; conditions: human, PBS buffer with CEM/0 cell extract
# [3] = Stability of the compound assessed as cleaved half life in presence of CEM/0 cell extract medium measured upto 25 hrs by RP-HPLC analysis; type: physicochemical; conditions: human
# [4] = Metabolic stability of the compound in mouse liver extract assessed as compound remaining measured after 24 hrs in presence of mouse liver extract medium by RP-HPLC analysis relative to control; type: ADME, tissue-based; conditions: read-out: Stability
# [5] = Metabolic stability of the compound in pig liver extract assessed as half life measured after 24 hrs in presence of pig liver extract medium by RP-HPLC analysis; type: ADME, tissue-based, Sus scrofa
# [6] = test system: Human immunodeficiency virus 2; test: Antiviral activity against […] HIV2 ROD infected in CEM-TK(-) cells assessed as inhibition of HIV induced cytopathogenic effects; type: functional, organism-based; conditions: Human immunodeficiency virus 2, ROD
# [7] = test system: Human immunodeficiency virus 1; test: Antiviral activity against HIV1 HE strain infected in CEM/0 cells assessed as inhibition of HIV induced cytopathogenic effects; type: functional, organism-based; conditions: Human immunodeficiency virus 1, HE, CCRF-CEM
# [8] = test system: Human immunodeficiency virus 2; test: Antiviral activity against HIV2 ROD infected in CEM/0 cells assessed as inhibition of HIV induced cytopathogenic effects; type: functional, organism-based; conditions: Human immunodeficiency virus 2, ROD, CCRF-CEM
# [9] = Cytotoxicity in human CEM/0 cells assessed as reduction in cell viability; type: toxicity, cell-based; conditions: CEM/0 cells (CCRF-CEM)
# [10] = Metabolic stability of the compound in mouse liver extract assessed as hydrolysis half life measured after 24 hrs in presence of mouse liver extract medium by RP-HPLC analysis; type: ADME, tissue-based
# [11] = Chemical stability in PBS buffer assessed half life measured after 24 hrs in presence of CEM/0 cell extract medium by RP-HPLC analysis relative to control; type: physicochemical; conditions: human, PBS buffer with CEM/0 cell extract
# [12] = Chemical stability in PBS buffer assessed dephosphorylated half life measured after 24 hrs in presence of CEM/0 cell extract medium by RP-HPLC analysis relative to control; type: physicochemical; conditions: human, PBS buffer with CEM/0 cell extract
# [13] = test system: Human immunodeficiency virus; test: Substrate activity at HIV reverse transcriptase assessed as DNA elongation using 5'-Cy3-CGTTG GTCCT GAAGG AGGAT AGG1T-3' as primer and 3'-GCAACCAGGACTTCCTCCTATCCAAAGACA-5' as template incubated at 37 degree C for 15 mins and at 80 degreeC for 3 mins by primer extension assay; conditions: time 18.0 min
# [14] = molecular target: DNA polymerase beta (Homo sapiens) (UniProt P06746); test: Substrate activity at human DNA polymerase beta using 5'-Cy3-CGTTG GTCCT GAAGG AGGAT AGG1T-3' as primer and 3'-GCAACCAGGACTTCCTCCTATCCAAAGACA-5' as template incubated at 37 degree C for 60 mins and at 80 degreeC for 3 mins by primer extension assay; conditions: time 63.0 min
# [15] = test system: Human immunodeficiency virus; test: Substrate activity at HIV reverse transcriptase assessed as DNA elongation using 5'-Cy3-CGTTG GTCCT GAAGG AGGAT AGG1T-3' as primer and 3'-GCAACCAGGACTTCCTCCTATCCAAAGACA-5' as template incubated at 37 degree C for 15 mins and at 80 degreeC for 3 mins in presence of TTP by primer extension assay; conditions: time 18.0 min
compound,measurement,setting,value
CCCCCCCCCC(=O)Oc1ccc(COP(=O)(OCc2ccc(OC(=O)CCCCCCCCC)cc2)OP(=O)([O-])OP(=O)([O-])OC[C@H]2O[C@@H](n3cc(C)c(=O)[nH]c3=O)C[C@@H]2F)cc1.[Na+].[Na+],half-life,[1],3.16 min
same,half-life,[2],81 h
same,half-life,[3],140 min
CCCCCCCCCCCCCCCCOP(=O)(O)OP(=O)(O)OP(=O)(O)OC[C@H]1O[C@@H](n2cc(C)c(=O)[nH]c2=O)C[C@@H]1F,remaining at 24 h,[4],39%
CCCCCCCCCCCCCCCCOP(=O)(OCc1ccc(OC(=O)CCC)cc1)OP(=O)(O)OP(=O)(O)OC[C@H]1O[C@@H](n2cc(C)c(=O)[nH]c2=O)C[C@@H]1F.N.N (stereo partly drawn),half-life,[5],0.582 min
same,half-life,[3],144 min
Cc1cn([C@H]2C[C@H](F)[C@@H](CO)O2)c(=O)[nH]c1=O [ALOVUDINE],EC50,[6],70000 nM
same,EC50,[7],1.6 nM
same,EC50,[8],3.2 nM
same,CC50,[9],> 100000 nM
Cc1cn([C@H]2C[C@H](F)[C@@H](COP(=O)(O)OP(=O)(O)OP(=O)(O)O)O2)c(=O)[nH]c1=O.N.N.N.N,half-life,[10],5.04 min
same,half-life,[11],30 min
same,half-life,[12],25.8 min
same,Activity,[13],Active
same,Activity,[14],Active
same,Activity,[15],Active
Cc1cn([C@H]2C[C@H](O)[C@@H](COP(=O)(O)OP(=O)(O)OP(=O)(O)O)O2)c(=O)[nH]c1=O [DEOXYTHYMIDINE_TRIPHOSPHATE],half-life,[11],30 min
same,half-life,[12],25.8 min
